Source: US20080139458A1, “Methods of Treatment For Injured or Diseased Joints” (priority 2004, published 2008)

B1: Trypsin: TPCK-treated trypsin (Sigma-Aldrich) used to treat lubricin, BSF and murine joints (protein, UniProt P00760 24-246, looked up)
Serine protease 1: IVGGYTCGANTVPYQVSLNSGYHFCGGSLINSQWVVSAAHCYKSGIQVRLGEDNINVVEGNEQFISASKSIVHPSYNSNTLNNDIMLIKLKSAASLNSRVASISLPTSCASAGTQCLISGWGNTKSSGTSYPDVLKCLKAPILSDSSCKSAYPGQITSNMFCAGYLEGGKDSCQGDSGGPVVCSGKLQGIVSWGSGCAQKNKPGVYTKVCNYVSWIKQTIASN
modifications: TPCK-treated
notes: TPCK-treated trypsin (Sigma-Aldrich) used to treat lubricin, BSF and murine joints

What was measured:
purified human lubricin [1] = assay: In vitro friction assay of protease-treated purified human lubricin; format: biochemical; settings: enzymes 0.5 U/mL, Lubricin = no enzyme, latex:glass bearing
Experimental: (§1) Human lubricin was purified from pooled SF aspirates of patients undergoing total knee replacement as described previously (Jay et al., Gluconj. J. 18:807-815, 2001). BSF was aspirated percutaneously from the lateral aspect of radiocarpal joints of freshly slaughtered cattle with sterile 18 gauge needles after cleansing the skin with alcohol swabs. The cattle were 1 year old and of both sexes (PelFreeze Corp., Little Rock, Ark.). The BSF was centrifuged at 20,000 g at 4° C. to remove cell debris and the BSF was stored at −20° C. Aliquots of purified human lubricin (1 mL, 250 μg/1 mL), and BSF (1 mL) were subjected to protease treatments with CB, NE, α-chymotrypsin, or trypsin. These enzymes were utilized as follows: 1) 0.5 U/mL of CB (Sigma-Aldrich, Saint Louis, Mo., one unit liberates 1 nanomole of 7-amino-4-methylcoumarin from Z-Arg-Arg 7-amido-4-methylcoumarin per min at pH 6.0 at 40° C.) reconstituted in 0.25 M Na acetate buffer, pH 5.5; 2) 0.5 U/mL NE (Sigma-Aldrich, one unit is defined as the release of 1 mole of p-nitrophenol per sec at 37° C.) reconstituted in 100 mM Tris-HCl, 100 mM CaCl2, pH 8.8; 3) 0.5 U/mL of TPCK-treated trypsin (Sigma-Aldrich, one unit causes a change in A253 of 0.001 per min at pH 7.6 at 25° C. using BAEE as a substrate) reconstituted in 50 mM Tris HCl, 20 mM CaCl2, pH 8.0; and 4) 0.5 U/mL of α-chymotrypsin (Sigma-Aldrich, one unit hydrolyzes 1.0 μmole of BTEE per min at pH 7.8 at 25° C.) reconstituted in 80 mM Tris-HCl, 100 mM CaCl2, pH 7.8.
(§2) Aliquots of digested human lubricin and BSF (200 μL) were removed after 2, 4, 6, 12, and 24 hours and the reaction was stopped by adding E-64 (L-trans-epoxysuccinyl-leucyl-amido-(4-guanidino)-butane, Sigma-Aldrich) to a final concentration of 100 μM (CB) or phenylmethanesulfonyl fluoride (PMSF, Sigma-Aldrich) to a final concentration of 1 mM (NE).
(§3) The boundary lubricating abilities of protease-treated human lubricin and BSF were measured using a friction apparatus as reported by Davis et al., J. Biomech. Eng. 101:185-192, 1979. Lubricant (200 μL) was applied between a bearing of latex and a ring of polished glass with a contact area of 1.59 cm^2. The latex was oscillated, under a pressure of 0.35×10^6 N/m^2, against the polished glass with an entraining velocity of 0.37 mm/sec. The bearing system was axially loaded within a gimbals system free to rotate around two perpendicular horizontal axes. The friction apparatus recorded displacements of the gimbals system around the vertical loading axis through a linear displacement voltage transducer, where the output was directly proportional to the frictional torque (F). A bearing load of 70 newtons (N) was related to the coefficient of friction (μ) via Amonton's law, F=μN.
(§4) The μ of the lubricant was recorded at room temperature and was preceded by a baseline measurement of μ with normal saline (NS). Lubrication was manifested by a reduction in μ by the lubricant relative to that of NS. Negative Δμ (−Δμ) values indicate lubrication whereas positive Δμ (+Δμ) indicate friction. Addition of 200 μL of lubricant was followed by bringing the bearing surfaces close enough so that the solution wet both surfaces. After 5 min for equilibration, the latex-coated bearing was brought to rest on the glass as it was oscillating. Voltage measurements were recorded at 1, 3, and 5 min. After 5 min, the surfaces were separated for 2 min and then brought back together for three additional 5 min session. The 3 and 5 min μ values of the last two 5 min session were recorded and averaged, and data were later combined with another duplicate experiment providing 8 distinct measurements of μ.

[2] = system: bovine synovial fluid (BSF); assay: In vitro friction assay of protease-treated bovine synovial fluid; format: biochemical; settings: enzymes 0.5 U/mL, BSF = no enzyme, latex:glass bearing
Experimental: as §1, §2, §3, §4

excised murine joints = assay: Ex vivo friction coefficient of excised murine joints after intra-articular protease (modified Stanton pendulum); set-up: species or system murine (Svev129 mice); settings: for Friction coefficient μ ± S.D.: n = 4; for average increase in μ: after vs before intra-articular injection of 0.05 U, 2 hours at room temperature
Experimental: Murine joint friction measurements were performed ex vivo in a modified Stanton pendulum configuration (Chamely, New Scientist 6:60, 1959) illustrated in FIG. 2. Excised murine joints, from 8 week old Svev129 mice, weighing approximately 20 grams (Taconic, Germantown, N.Y.), were stripped of supporting connective tissue and musculature, while the synovium was left undisturbed. The femur and tibia were severed mid-length and covered with connecting plexiglass tubing. The center of the joint served as the axis of rotation of a 1 Hz pendulum. The joints were loaded with 20 grams and allowed to oscillate. The pendulum was set in motion at an angle of 30° off the perpendicular axis. The pendulum motion was videotaped and post-hoc analysis was performed to establish baseline μ. The deceleration of the pendulum, a=dv/dt, was used to calculate μ. Velocity (v) was calculated from the equation: v=(2 gh)^1/2 where h is the height from where the pendulum reached apogee to the point of maximum velocity at a=0. The μ of murine joint was calculated to be equal a/g. Presently, this calculation neglects aerodynamic drag and assumes g equals 9.81 m/s^2. A 5 μL protease solution containing 0.05 U of CB, NE, α-chymotrypsin, or trypsin was delivered intra-articularly. The limbs were treated at room temperature for 2 hours and the limbs were subsequently allowed to oscillate to estimate μ following treatment with the protease.

purified human lubricin [3] = assay: Western blot of protease-treated purified human lubricin (PNA-peroxidase and pAb J108); format: biochemical
Experimental: as §1, with “7.8. […]” for “7.8.”
Probing was performed using pAb J108, which recognizes an epitope; […], encoded by exon 3 within the amino-terminus of human lubricin/SZP and present in all alternatively spliced isoforms (Jay et al., J. Orthop. Res. 19:677-687, 2001). […] Immunopositive bands were detected in a darkroom on BioMax film (Kodak, Rochester, N.Y.). […]

[4] = After intra-articular injection of 5 μl containing 0.05 U, 2 hour treatment at room temperature
[5] = Before intra-articular injection (baseline)

Molecule	Change in coefficient of friction Δμ ± S.D. (purified human lubricin [1]; 0 hrs)	Change in coefficient of friction Δμ ± S.D. (purified human lubricin [1]; 2 hrs)	Change in coefficient of friction Δμ ± S.D. (purified human lubricin [1]; 4 hrs)	Change in coefficient of friction Δμ ± S.D. (purified human lubricin [1]; 6 hrs)	Change in coefficient of friction Δμ ± S.D. (purified human lubricin [1]; 12 hrs)	Change in coefficient of friction Δμ ± S.D. (purified human lubricin [1]; 24 hrs)	Change in coefficient of friction Δμ ± S.D. ([2]; 0 hrs)	Change in coefficient of friction Δμ ± S.D. ([2]; 2 hrs)	Change in coefficient of friction Δμ ± S.D. ([2]; 4 hrs)	Change in coefficient of friction Δμ ± S.D. ([2]; 6 hrs)	Change in coefficient of friction Δμ ± S.D. ([2]; 12 hrs)	Change in coefficient of friction Δμ ± S.D. ([2]; 24 hrs)	Friction coefficient μ ± S.D. (excised murine joints; [4])	Friction coefficient μ ± S.D. (excised murine joints; [5])	average increase in μ (excised murine joints)	Degradation of lubricin (band intensities) (purified human lubricin [3]; 0.5 U/mL, 2, 4, 6, 12, and 24 hours post-treatment)	pAb J108 immunoreactive bands (purified human lubricin [3]; following NE treatment for 2 hours at 37° C.)	PNA and J108 reactivity of lubricin (purified human lubricin [3]; after 2 hours of treatment (data not shown))
Neutrophil Elastase: protease (Sigma-Aldrich) used to treat lubricin, BSF and murine joints	−0.068 ± 0.005	−0.038 ± 0.005	−0.019 ± 0.004	0.004 ± 0.001	0.015 ± 0.003	0.054 ± 0.006	−0.061 ± 0.005	−0.039 ± 0.001	0.007 ± 0.001	0.009 ± 0.001	0.010 ± 0.001	0.013 ± 0.002	0.0028 ± 0.0008	0.0022 ± 0.0005	27.3%	time-dependent degradation of lubricin	no pAb J108 immunoreactive bands were detected	
B1	−0.068 ± 0.005	0.025 ± 0.006	0.032 ± 0.005	0.038 ± 0.001	0.046 ± 0.005	0.049 ± 0.005	−0.061 ± 0.005	−0.031 ± 0.005	−0.015 ± 0.002	0.005 ± 0.001	0.009 ± 0.003	0.012 ± 0.004	0.0034 ± 0.0003	0.0018 ± 0.0001	88.9%			complete loss of PNA and J108 reactivity
